The subject of the assay is mice. The experiment in a line: pentobarbital-induced sleep test in mice (sleep latency and total sleeping time). It counts as in vivo. The settings on record: 30 minutes before pentobarbital 45 mg/kg i.p. As to the method: A sleep disorder refers to syndromes in which one cannot fall asleep well and the total sleeping time is short. In order to confirm the effect of improving the sleep quality of beta-lapachone, mice were purchased from Orient Bio Co. Beta-lapachone (Sigma Aldrich) was administered once intraperitoneally or orally to mice at a dose of 0.03, 0.1, 0.3, or 1 mg/kg by concentration, respectively, 30 minutes before induction of sleep, and 0.9% physiological saline was administered to the control mice, and 1 mg/kg of diazepam (MYUNG IN Pharm. Co.), most popular used sleeping pill, was administered intraperitoneally or orally to the positive control mice. 45 mg/kg of pentobarbital ([…] Pharm. Co., Ltd.), a commercially used sedative and sleeping pill, was intraperitoneally administered to mice to induce sleeping after 30 minutes of the above administration.

Turning to `CC1(C)CCC2=C(O1)c1ccccc1C(=O)C2=O` [beta-lapachone], the sleep latency entry (single intraperitoneal administration at 0.03, 0.1, 0.3 or 1 mg/kg, FIG. 1) is recorded as “shortened in a concentration-dependent manner” and the sleep latency result (single oral administration at 0.03, 0.1, 0.3 or 1 mg/kg, FIG. 3) is reported as “shortened in a concentration-dependent manner”. Moreover, the total sleeping time entry was “increased in a concentration-dependent manner” (single intraperitoneal administration at 0.03, 0.1, 0.3 or 1 mg/kg, FIG. 2) and “increased in a concentration-dependent manner” (single oral administration at 0.03, 0.1, 0.3 or 1 mg/kg, FIG. 4).

For the origin of these results see patent US11278515B2, “Composition for improvement of sleep or for prevention or treatment of sleep disorders, containing beta-lapachone” (AJOU UNIVERSITY INDUSTRY-ACADEMIC COOPERATION FOUNDATION, priority 2016, dated 2022).
